≈ marks a conversion by molar mass, not a printed value. Where only a bound is given, the exact number is not on record here.

In this assay the test system is KB. Briefly: Cytotoxicity against human KB cells. Format: functional. The note with it: read-out: ED50 (the source's name).
Turning to `O=C1OCc2c1cc1cc3c(cc1c2-c1ccc2c(c1)OCO2)OCO3`, the EC50 was greater than 10.5 µg/mL.
For `COc1cc2c(O)c3c(c(-c4ccc5c(c4)OCO5)c2cc1OC)C(=O)OC3` [DIPHYLLIN], the EC50 was less than 1 µg/mL.
In the case of `COc1cc2c(OC)c3c(c(-c4ccc5c(c4)OCO5)c2cc1OC)C(=O)OC3` [JUSTICIDIN A] it was less than 1 µg/mL; in that of `COc1c2c(c(-c3ccc4c(c3)OCO4)c3cc4c(cc13)OCO4)COC2=O` [NEOJUSTICIN A], 9 µg/mL (≈ 23.8 µM); in that of `COc1cc2c(OC)c3c(c(-c4ccc5c(c4)OCO5)c2cc1OC)COC3=O` [NEOJUSTICIN B], greater than 10.5 µg/mL.

For the origin of these results see ChEMBL document CHEMBL1149008, “Antitumor agents, 81. Justicidin-A and diphyllin, two cytotoxic principles from Justicia procumbens” (1986).
